Data from patent US12678453B2, “Aerosolized formulations of HIV protease inhibitors for the treatment of airway reflux” (The Medical College of Wisconsin, Inc., priority 2020, dated 2026).

Tests used:
porcine pepsin A = target: T1, porcine pepsin A (Sus scrofa, UniProt P00791); assay: co-crystallization of inhibitors with pepsin; assay type: binding; conditions: crystal structures of porcine pepsin complexes
T1 construct: purchased Worthington Biochemical Corporation
Description: (§1) Lyophilized porcine pepsin A (Worthington Biochemical Corporation) was dissolved in water at 200 mg/mL. All ligand stock solutions, except for saquinavir mesylate, were prepared as saturated solutions in DMSO in order to dissolve the maximal amount of ligand. The solutions were centrifuged and an appropriate volume of the supernatant was added to the pepsin solution so that final mixture contained 1.6% of the ligand stock by volume. The mixtures were incubated at room temperature for 1 h, centrifuged for 10 min at 31,000 rcf, and the supernatant was used for crystallization experiments. […] In order to maximize the solubility of saquinavir in the crystallization solution, we tested solutions from the CryoSol screen (Molecular Dimensions) (PMID 28626721). Mixture SM2 consisting of 37.5% v/v dioxane, 25% v/v DMSO, 12.5% v/v ethylene glycol, 12.5% v/v 1,2-propanediol, and 12.5% v/v glycerol allowed us to increase the amount of ligand solution in the co-crystallization mixture without damaging the protein. The saturated solution of saquinavir in SM2 was treated in the same manner as solutions of other ligands except that its amount in the solution with pepsin was increased to 5% by volume.
The initial crystallization condition was identified by screening 200 mg/mL ligand-free porcine pepsin against the Salt RX screen (Hampton Research). Small bipyramid-shaped crystals were obtained in 3.5 M ammonium chloride and 0.1 M sodium acetate trihydrate pH 4.6 after 1 week of incubation at room temperature. […] Diffraction quality crystals formed after 2-7 days from hanging drops containing 2 μL of pepsin at concentrations of 180-210 mg/mL and 1 μL of a microseed solution serially diluted 10-100× above a well solution containing 3 M-4 M ammonium chloride and 0.1 M sodium acetate trihydrate pH 4.6. The crystals were shaped as triangular bi-pyramids with dimensions approximately 200×100×100 μm. Crystals were cryoprotected by soaking them in 30% w/v glucose, 5 M ammonium chloride and 0.1 M sodium acetate trihydrate pH 4.6 and then plunging them in liquid nitrogen.
The complex with saquinavir was crystallized in the same manner except that we used 0.1 M acetic acid instead of 0.1 M sodium acetate trihydrate pH 4.6 because this change allowed us to grow large crystals without the need for a microseeding solution. Cryoprotection was accomplished using 30% w/v glucose, 3 M ammonium chloride and 0.1 M acetic acid, followed by plunging in liquid nitrogen.
Pepsin·APV: A 1.9 Å diffraction data set was collected at the Life Sciences Collaborative Access Team beamline (LS-CAT) 21-ID-F at the Advanced Photon Source (APS) equipped with a MAR 300 CCD detector using a 50×50 μm beam at a wavelength of 0.97872 Å. […]

solubility = assay type: physicochemical; conditions: co-crystallization solution
Description: as §1

T1 sequence (P00791 60-385): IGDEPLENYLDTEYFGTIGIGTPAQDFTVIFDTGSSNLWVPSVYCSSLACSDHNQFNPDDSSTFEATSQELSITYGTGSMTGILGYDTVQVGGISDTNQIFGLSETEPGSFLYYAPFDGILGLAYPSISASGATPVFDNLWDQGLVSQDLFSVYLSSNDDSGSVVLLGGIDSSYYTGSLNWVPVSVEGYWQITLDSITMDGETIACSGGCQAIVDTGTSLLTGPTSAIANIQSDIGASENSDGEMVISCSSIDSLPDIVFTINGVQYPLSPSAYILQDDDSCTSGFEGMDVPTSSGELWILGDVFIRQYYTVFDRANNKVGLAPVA

| SMILES | binding at the active site of pepsin by co-crystallization (porcine pepsin A) | solubility (solubility) |
| --- | --- | --- |
| CC(C)CN(C[C@@H](O)[C@H](Cc1ccccc1)NC(=O)O[C@H]1CCOC1)S(=O)(=O)c1ccc(N)cc1 [amprenavir, [(3S)-oxolan-3-yl] N-[(2S,3R)-4-[(4-aminophenyl)sulfonyl-(2-methylpropyl)amino]-3-hydroxy-1-phenylbutan-2-yl]carbamate] | bind in the pepsin active site |  |
| CC(C)CN(C[C@@H](O)[C@H](Cc1ccccc1)NC(=O)O[C@H]1CO[C@H]2OCC[C@H]21)S(=O)(=O)c1ccc(N)cc1 [darunavir, [(3a S,4R,6aR)-2,3,3a,4,5,6a-hexahydrofuro[2,3-b]furan-4-yl] N-[(2S,3R)-4-[(4-aminophenyl)sulfonyl-(2-methylpropyl)amino]-3-hydroxy-1-phenylbutan-2-yl]carbamate] | bind at the active site of pepsin |  |
| CC(C)c1nc(CN(C)C(=O)N[C@H](C(=O)N[C@@H](Cc2ccccc2)C[C@H](O)[C@H](Cc2ccccc2)NC(=O)OCc2cncs2)C(C)C)cs1 [ritonavir, 1,3-thiazol-5-ylmethyl N-[(2S,3 S,5S)-3-hydroxy-5-[[(2S)-3-methyl-2-[[methyl-[(2-propan-2-yl-1,3-thiazol-4-yl)methyl]carbamoyl]amino]butanoyl]amino]-1,6-diphenylhexan-2-yl]carbamate] | bind at the active site of pepsin |  |
| CC(C)(C)NC(=O)[C@@H]1C[C@@H]2CCCC[C@@H]2CN1C[C@@H](O)[C@H](Cc1ccccc1)NC(=O)[C@H](CC(N)=O)NC(=O)c1ccc2ccccc2n1 [saquinavir, (2S)—N-[(2S,3R)-4-[(3 S,4aS,8aS)-3-(tert-butylcarbamoyl)-3,4,4a,5,6,7,8,8a-octahydro-1H-isoquinolin-2-yl]-3-hydroxy-1-phenylbutan-2-yl]-2-(quinoline-2-carbonylamino)butanediamide] | bind at the active site of pepsin | low solubility |
